Source: publication PMC8400920, “Metabolism of Diterpenoids Derived from the Bark of Cinnamomum cassia in Human Liver Microsomes” (Pharmaceutics, 2021)

Columns and labels:
Assay in all cases: AHC metabolism by recombinant cDNA-expressed CYP isoform
Assay type in all cases: in vitro ADME
Settings in all cases: 10 µM AHC, 10 pmol recombinant CYP, NGS, 37 °C, 60 min
[1] = molecular target: T1, CYP1A1 (Homo sapiens, UniProt P04798)
T1 construct: purchased Corning Gentest
T1 sequence (P04798 1-512): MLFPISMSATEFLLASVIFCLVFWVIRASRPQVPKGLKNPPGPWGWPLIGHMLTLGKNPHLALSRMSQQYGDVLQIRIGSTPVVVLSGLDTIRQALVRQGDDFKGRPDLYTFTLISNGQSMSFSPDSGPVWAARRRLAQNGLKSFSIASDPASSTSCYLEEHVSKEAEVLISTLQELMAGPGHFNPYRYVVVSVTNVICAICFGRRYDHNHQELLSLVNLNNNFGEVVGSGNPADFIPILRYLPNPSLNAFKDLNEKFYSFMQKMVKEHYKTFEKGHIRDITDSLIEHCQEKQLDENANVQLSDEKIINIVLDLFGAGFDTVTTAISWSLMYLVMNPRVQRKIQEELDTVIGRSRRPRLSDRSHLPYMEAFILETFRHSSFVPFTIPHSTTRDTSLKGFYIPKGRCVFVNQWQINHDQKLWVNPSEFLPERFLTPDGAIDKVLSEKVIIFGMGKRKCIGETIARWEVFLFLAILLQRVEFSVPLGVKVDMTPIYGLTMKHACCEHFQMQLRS
Description: (§1) To identify the metabolic enzymes for AHC, 10 µM AHC was incubated with 10 pmol of human recombinant cDNA-expressed CYP isoforms (CYP1A1, 1A2, 2A6, 2B6, 2C8, 2C9, 2C19, 2D6, 2E1, 3A4, and 3A5) in the presence of 0.1 M potassium phosphate buffer (pH 7.4). The reaction was initiated by adding 100 µL of NGS at 37 °C for 60 min. Then, the mixture was suspended by adding 400 µL of ice-cold 100% ACN. Following centrifugation at 15,700× g for 10 min at 4 °C, the supernatant was transferred to a new tube and evaporated using a speed-vacuum concentrator. Next, the dried sample was diluted with 100 µL of 20% MeOH containing 0.1% formic acid, and a 5 µL aliquot was injected into a C18 column for LC–MS/MS analysis.
(§2) To identify the CYP isoforms involved in AHC metabolism, AHC (10 µM) was incubated with eleven cDNA-expressed recombinant CYP isoforms (CYP1A1, CYP1A2, CYP2A6, CYP2B6, CYP2C8, CYP2C9, CYP2C19, CYP2D6, CYP2E1, CYP3A4, and CYP3A5) in the presence of the NGS. […] However, the metabolites of AHC were not observed from reactions with other CYPs. Thus, in the metabolism of AHC in HLMs, CYP3A4 was involved as the main enzyme, and four types of metabolites were generated.

[2] = molecular target: T2, CYP2A6 (Homo sapiens, UniProt P11509)
T2 construct: purchased Corning Gentest
T2 sequence (P11509 1-494): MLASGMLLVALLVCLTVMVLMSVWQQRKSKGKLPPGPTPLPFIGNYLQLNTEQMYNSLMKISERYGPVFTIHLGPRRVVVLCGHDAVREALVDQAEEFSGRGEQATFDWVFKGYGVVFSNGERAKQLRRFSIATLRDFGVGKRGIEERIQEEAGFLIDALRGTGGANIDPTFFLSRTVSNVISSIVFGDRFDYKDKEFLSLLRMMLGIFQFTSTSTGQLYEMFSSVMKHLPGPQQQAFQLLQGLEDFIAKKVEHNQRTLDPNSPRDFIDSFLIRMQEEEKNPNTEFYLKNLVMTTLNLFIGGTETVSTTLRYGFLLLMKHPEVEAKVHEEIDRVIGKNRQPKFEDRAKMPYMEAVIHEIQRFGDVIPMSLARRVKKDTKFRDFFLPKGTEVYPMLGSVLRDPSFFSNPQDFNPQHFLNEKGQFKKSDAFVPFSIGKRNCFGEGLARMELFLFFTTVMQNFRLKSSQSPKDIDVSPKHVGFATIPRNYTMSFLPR
Description: as §1, §2

[3] = molecular target: T3, CYP2B6 (Homo sapiens, UniProt P20813)
T3 construct: purchased Corning Gentest
T3 sequence (P20813 1-491): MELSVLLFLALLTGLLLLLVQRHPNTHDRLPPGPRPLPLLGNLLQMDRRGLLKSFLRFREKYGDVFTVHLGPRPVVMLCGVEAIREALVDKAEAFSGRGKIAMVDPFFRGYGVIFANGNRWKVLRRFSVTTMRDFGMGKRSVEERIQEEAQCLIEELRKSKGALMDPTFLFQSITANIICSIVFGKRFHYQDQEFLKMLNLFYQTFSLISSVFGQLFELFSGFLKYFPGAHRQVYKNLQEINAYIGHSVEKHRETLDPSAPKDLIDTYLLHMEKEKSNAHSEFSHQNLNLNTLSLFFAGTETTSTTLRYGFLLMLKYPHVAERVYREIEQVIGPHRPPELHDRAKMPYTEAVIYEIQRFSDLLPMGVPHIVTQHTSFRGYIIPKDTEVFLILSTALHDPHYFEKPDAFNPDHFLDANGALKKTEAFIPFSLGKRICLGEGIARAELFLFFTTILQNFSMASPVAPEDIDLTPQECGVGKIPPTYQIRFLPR
Description: as §1, §2

[4] = molecular target: T4, CYP2C19 (Homo sapiens, UniProt P33261)
T4 construct: purchased Corning Gentest
T4 sequence (P33261 whole entry): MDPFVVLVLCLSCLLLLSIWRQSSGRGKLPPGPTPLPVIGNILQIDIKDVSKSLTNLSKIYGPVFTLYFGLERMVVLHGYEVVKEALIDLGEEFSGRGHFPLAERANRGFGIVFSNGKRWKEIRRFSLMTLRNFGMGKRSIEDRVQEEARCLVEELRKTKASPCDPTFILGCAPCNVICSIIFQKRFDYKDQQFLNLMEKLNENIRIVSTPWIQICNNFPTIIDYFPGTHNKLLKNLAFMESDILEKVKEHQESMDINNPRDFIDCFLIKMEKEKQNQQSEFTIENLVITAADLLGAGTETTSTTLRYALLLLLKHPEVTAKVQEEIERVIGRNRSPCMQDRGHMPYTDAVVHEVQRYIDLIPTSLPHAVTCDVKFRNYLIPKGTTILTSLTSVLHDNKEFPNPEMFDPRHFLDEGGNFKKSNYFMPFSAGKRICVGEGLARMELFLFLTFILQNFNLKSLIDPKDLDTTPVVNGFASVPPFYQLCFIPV
Description: as §1, §2

[5] = molecular target: T5, CYP2C8 (Homo sapiens, UniProt P10632)
T5 construct: purchased Corning Gentest
T5 sequence (P10632 1-490): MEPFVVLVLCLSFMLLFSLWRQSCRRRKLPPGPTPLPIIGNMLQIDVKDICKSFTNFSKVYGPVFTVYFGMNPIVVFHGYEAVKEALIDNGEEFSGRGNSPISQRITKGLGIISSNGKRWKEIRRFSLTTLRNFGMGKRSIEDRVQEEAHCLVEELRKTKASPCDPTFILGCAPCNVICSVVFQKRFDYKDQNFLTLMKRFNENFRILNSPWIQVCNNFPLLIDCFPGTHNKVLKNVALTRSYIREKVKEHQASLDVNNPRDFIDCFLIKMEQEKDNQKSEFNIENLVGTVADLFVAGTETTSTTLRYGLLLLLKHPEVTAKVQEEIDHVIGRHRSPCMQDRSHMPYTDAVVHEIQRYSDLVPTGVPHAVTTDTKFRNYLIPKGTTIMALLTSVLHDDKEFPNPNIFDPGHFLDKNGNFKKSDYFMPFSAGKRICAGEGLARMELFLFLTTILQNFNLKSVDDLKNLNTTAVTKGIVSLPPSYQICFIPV
Description: as §1, §2

[6] = molecular target: T6, CYP2C9 (Homo sapiens, UniProt P11712)
T6 construct: purchased Corning Gentest
T6 sequence (P11712 whole entry): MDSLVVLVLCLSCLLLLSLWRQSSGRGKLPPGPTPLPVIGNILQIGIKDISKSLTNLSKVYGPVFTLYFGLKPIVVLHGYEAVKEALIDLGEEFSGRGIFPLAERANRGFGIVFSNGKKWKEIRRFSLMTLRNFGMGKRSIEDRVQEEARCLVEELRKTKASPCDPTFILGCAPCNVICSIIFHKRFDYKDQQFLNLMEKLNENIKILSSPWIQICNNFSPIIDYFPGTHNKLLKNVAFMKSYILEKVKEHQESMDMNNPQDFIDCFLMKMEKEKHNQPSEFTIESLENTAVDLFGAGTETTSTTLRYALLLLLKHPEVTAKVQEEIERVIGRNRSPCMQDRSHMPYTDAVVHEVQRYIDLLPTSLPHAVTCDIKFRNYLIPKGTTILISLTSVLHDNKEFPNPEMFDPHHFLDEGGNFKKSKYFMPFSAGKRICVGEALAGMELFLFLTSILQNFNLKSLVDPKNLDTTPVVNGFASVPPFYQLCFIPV
Description: as §1, §2

[7] = molecular target: T7, CYP2D6 (Homo sapiens, UniProt P10635)
T7 construct: purchased Corning Gentest
T7 sequence (P10635 whole entry): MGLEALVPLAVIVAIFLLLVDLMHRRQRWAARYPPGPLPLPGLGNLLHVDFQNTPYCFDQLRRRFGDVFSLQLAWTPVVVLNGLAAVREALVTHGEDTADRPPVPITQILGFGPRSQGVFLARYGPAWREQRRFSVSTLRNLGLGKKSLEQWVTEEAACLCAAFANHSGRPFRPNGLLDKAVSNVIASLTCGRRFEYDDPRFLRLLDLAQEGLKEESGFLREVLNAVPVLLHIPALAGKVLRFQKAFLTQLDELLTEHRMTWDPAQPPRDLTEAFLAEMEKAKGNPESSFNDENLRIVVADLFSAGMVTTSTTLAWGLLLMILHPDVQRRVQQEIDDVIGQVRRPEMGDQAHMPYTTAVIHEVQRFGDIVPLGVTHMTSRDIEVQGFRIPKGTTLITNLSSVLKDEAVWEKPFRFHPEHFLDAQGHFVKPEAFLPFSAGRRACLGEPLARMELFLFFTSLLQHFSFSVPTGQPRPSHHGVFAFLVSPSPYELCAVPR
Description: as §1, §2

[8] = molecular target: T8, CYP2E1 (Homo sapiens, UniProt P05181)
T8 construct: purchased Corning Gentest
T8 sequence (P05181 whole entry): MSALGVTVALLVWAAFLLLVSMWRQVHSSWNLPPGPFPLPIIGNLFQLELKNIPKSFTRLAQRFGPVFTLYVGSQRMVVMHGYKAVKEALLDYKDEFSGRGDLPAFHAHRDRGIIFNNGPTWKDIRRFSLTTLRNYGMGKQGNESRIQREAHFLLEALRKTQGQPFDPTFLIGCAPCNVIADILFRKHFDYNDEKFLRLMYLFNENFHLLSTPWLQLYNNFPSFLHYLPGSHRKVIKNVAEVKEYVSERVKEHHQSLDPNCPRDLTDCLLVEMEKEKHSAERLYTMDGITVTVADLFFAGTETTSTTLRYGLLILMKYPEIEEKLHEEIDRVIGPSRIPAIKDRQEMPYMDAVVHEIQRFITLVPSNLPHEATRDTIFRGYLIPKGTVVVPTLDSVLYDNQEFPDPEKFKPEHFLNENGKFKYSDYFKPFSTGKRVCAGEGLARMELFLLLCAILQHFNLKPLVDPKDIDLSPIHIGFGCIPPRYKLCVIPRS
Description: as §1, §2

CC(=O)O[C@@H]1[C@@H](C)CC[C@]2(O)[C@]3(C)CC(=O)O[C@]12[C@@]1(O)C(C)=C(C(C)C)C[C@@]31O [AHC, anhydrocinnzeylanine]
not observed: metabolites of AHC from reaction with CYP1A1 [1] | metabolites of AHC from reaction with CYP2A6 [2] | metabolites of AHC from reaction with CYP2B6 [3] | metabolites of AHC from reaction with CYP2C19 [4] | metabolites of AHC from reaction with CYP2C8 [5] | metabolites of AHC from reaction with CYP2C9 [6] | metabolites of AHC from reaction with CYP2D6 [7] | metabolites of AHC from reaction with CYP2E1 [8]
